# PMC7586797, “Phase 1 Study to Evaluate the Effect of the Investigational Anticancer Agent Sapanisertib on the QTc Interval in Patients With Advanced Solid Tumors” (Clinical Pharmacology in Drug Development, 2020)
# Several values for one entry are separate records, joined by “and”; a condition that tells them apart may be missing. Identical values can stand only once.
# What was measured:
# [1] = tested on: patients with advanced solid tumors; test: Dedicated QTc study: serial triplicate Holter ECGs, change from time-matched baseline; assay type: in vivo, human; conditions: for LSM QTcF Change (95% UCB) from time-matched baseline / LSM QTcI Change (95% UCB) from time-matched baseline / LSM heart rate change (95% UCB) from time-matched baseline: 40 mg single oral dose
# Experimental: The study was conducted at 5 centers across the United States (Montefiore Medical Center, Bronx, New York; Washington University School of Medicine, Saint Louis, Missouri; Stephenson Cancer Center, University of Oklahoma, Oklahoma City, Oklahoma; Mary Crowley Cancer Research Center, Dallas, Texas; and Florida Cancer Specialists/Sarah Cannon Research Institute, Sarasota, Florida) to evaluate the effect of a single oral dose of sapanisertib (40 mg) on the electrocardiographic QT/QTc interval in patients with advanced solid tumors (NCT02197572, clinicaltrials.gov). The primary end point was change from time‐matched baseline in the QTc interval (ΔQTc).
# Patients reported to the study sites on day –1 for collection of serial baseline triplicate ECGs prior to sapanisertib administration (described in the ECG Assessments section). […] The patients were equipped with 12 ECG leads to continuously record patient ECG data onto a Holter H12+ ECG recorder. All procedures that were followed on day –1 were consistent with procedures expected for day 1, with the exception of plasma sample collection for PK assessments, since no sapanisertib was administered on day –1. After collection of the 10‐hour time point ECG on day –1, the patients were furloughed from the study site with Holter recorders still attached. These Holter recorders were to remain attached overnight to continue to collect ECG data into day 1.
# On cycle 1 day 1, triplicate ECGs and plasma samples for PK were collected from patients ≤15 minutes prior to dosing and at 15 minutes; 30 minutes; and 1‐, 1.5‐, 2‐, 2.5‐, 3‐, 4‐, 6‐, 8‐, and 10‐hour time points after receiving a single oral dose of 40‐mg sapanisertib. The Holter recorders and ECG leads were removed from patients after collection of the 10‐hour time point ECG on day 1, following which patients were furloughed from site. Additional collections of ECGs and plasma samples for PK were conducted at 24 (cycle 1 day 2) and 48 hours (cycle 1 day 3) after dosing. After the first week, that is, cycle 1 day 8, patients had the option to continue to receive treatment with sapanisertib at a dose of 30 mg once weekly in continuous 28‐day cycles until disease progression, unacceptable toxicity, withdrawal of consent, or completion of the 12‐month maximum study duration.
# To enable collection of time‐matched ECG and PK data before and after sapanisertib administration, patients reported to the study sites on day –1, during which ECG leads (12 leads) and Holter H12+ ECG recorders were attached. Each planned ECG collection time point was preceded by a 5‐minute supine rest period, after which triplicate ECGs were extracted from the Holter recorders at approximately 2‐ to 5‐minute intervals. Serial triplicate ECGs were collected from 0 to 10 hours, matched to the planned dosing on cycle 1 day 1 predose and postdose ECG and PK time points, to characterize the baseline ECG and QTc interval. All triplicate ECGs were extracted and read centrally (Biotelemetry, Malvern, Pennsylvania). All blood draws for PK were collected after the triplicate ECG collection period.
# The baseline characterization of serial triplicate ECG allowed for patient‐specific individual heart rate correction (QTcI) in addition to the Fridericia's ( QTcF=QT/RR3 ) correction that is commonly used in clinical practice. The patient‐specific slopes were calculated using all pairs of QT and RR (time elapsing between two consecutive R waves in an ECG) interval data collected on day –1 and estimated using the linear regression expression: logQT=loga+b∗logRR to calculate the individual slope (b) for each patient. QTcI was then calculated as QTcI=QT/RR^b
# ECG analysis was conducted in the primary analysis population, which included patients who had all time points collected on Holter ECG monitoring on day –1 and day 1 of cycle 1, including ECG time points collected on cycle 1 day 1 to cycle 1 day 3 at 24 or 48 hours after dosing that had available baseline comparisons. […]
# [2] = tested on: human ether‐à‐go‐go channel; conditions: in vitro; cited from earlier work
# [3] = after 40 mg dose, 32 evaluable patients
smiles,measurement,setting,value
CC(C)n1nc(-c2ccc3oc(N)nc3c2)c2c(N)ncnc21 [sapanisertib],LSM QTcF Change (95% UCB) from time-matched baseline,[1]; 0.25 h after dose,–1.7 (2.2) msec
same,LSM QTcI Change (95% UCB) from time-matched baseline,[1]; 0.25 h after dose,–2.2 (2.2) msec
same,LSM heart rate change (95% UCB) from time-matched baseline,[1]; 0.25 h after dose,–0.2 (2.2) bpm
same,LSM QTcF Change (95% UCB) from time-matched baseline,[1]; 0.5 h after dose,–5.3 (–1.5) msec
same,LSM QTcI Change (95% UCB) from time-matched baseline,[1]; 0.5 h after dose,–8.3 (–4.0) msec
same,LSM heart rate change (95% UCB) from time-matched baseline,[1]; 0.5 h after dose,–4.4 (–1.9) bpm
same,LSM QTcF Change (95% UCB) from time-matched baseline,[1]; 1 h after dose,1.8 msec and 1.8 (5.6) msec
same,LSM QTcI Change (95% UCB) from time-matched baseline,[1]; 1 h after dose,–1.8 (2.6) msec
same,LSM heart rate change (95% UCB) from time-matched baseline,[1]; 1 h after dose,–3.8 (–1.4) bpm
same,LSM QTcF Change (95% UCB) from time-matched baseline,[1]; 1.5 h after dose,0.1 (4.0) msec
same,LSM QTcI Change (95% UCB) from time-matched baseline,[1]; 1.5 h after dose,–2.7 (1.7) msec
same,LSM heart rate change (95% UCB) from time-matched baseline,[1]; 1.5 h after dose,–3.3 (–0.9) bpm
same,LSM QTcF Change (95% UCB) from time-matched baseline,[1]; 2 h after dose,–3.7 (0.1) msec
same,LSM QTcI Change (95% UCB) from time-matched baseline,[1]; 2 h after dose,–5.0 (–0.6) msec
same,LSM heart rate change (95% UCB) from time-matched baseline,[1]; 2 h after dose,–0.8 (1.5) bpm
same,LSM QTcF Change (95% UCB) from time-matched baseline,[1]; 2.5 h after dose,–7.4 (–3.6) msec
same,LSM QTcI Change (95% UCB) from time-matched baseline,[1]; 2.5 h after dose,–7.6 (–3.2) msec
same,LSM heart rate change (95% UCB) from time-matched baseline,[1]; 2.5 h after dose,0.1 (2.5) bpm
same,LSM QTcF Change (95% UCB) from time-matched baseline,[1]; 3 h after dose,–7.6 (–3.7) msec
same,LSM QTcI Change (95% UCB) from time-matched baseline,[1]; 3 h after dose,–9.1 (–4.6) msec
same,LSM heart rate change (95% UCB) from time-matched baseline,[1]; 3 h after dose,–0.1 (2.3) bpm
same,LSM QTcF Change (95% UCB) from time-matched baseline,[1]; 4 h after dose,–8.0 (–4.2) msec
same,LSM QTcI Change (95% UCB) from time-matched baseline,[1]; 4 h after dose,–7.2 (–2.9) msec
same,LSM heart rate change (95% UCB) from time-matched baseline,[1]; 4 h after dose,–0.2 (2.2) bpm
same,LSM QTcF Change (95% UCB) from time-matched baseline,[1]; 6 h after dose,–10.1 (–6.4) msec
same,LSM QTcI Change (95% UCB) from time-matched baseline,[1]; 6 h after dose,–8.8 (–4.6) msec
same,LSM heart rate change (95% UCB) from time-matched baseline,[1]; 6 h after dose,4.8 (7.1) bpm
same,LSM QTcF Change (95% UCB) from time-matched baseline,[1]; 8 h after dose,–4.2 (–0.3) msec
same,LSM QTcI Change (95% UCB) from time-matched baseline,[1]; 8 h after dose,–2.2 (2.4) msec
same,LSM heart rate change (95% UCB) from time-matched baseline,[1]; 8 h after dose,6.9 (9.4) bpm
same,LSM QTcF Change (95% UCB) from time-matched baseline,[1]; 10 h after dose,–12.5 (–7.1) msec
same,LSM QTcI Change (95% UCB) from time-matched baseline,[1]; 10 h after dose,–6.6 (–0.5) msec
same,LSM heart rate change (95% UCB) from time-matched baseline,[1]; 10 h after dose,8.6 bpm and 8.6 (12.1) bpm
same,LSM QTcF Change (95% UCB) from time-matched baseline,[1]; 24 h after dose,0.8 (4.5) msec
same,LSM QTcI Change (95% UCB) from time-matched baseline,[1]; 24 h after dose,7.1 msec and 7.1 (11.4) msec
same,LSM heart rate change (95% UCB) from time-matched baseline,[1]; 24 h after dose,12.4 bpm and 12.4 (14.7) bpm
same,LSM QTcF Change (95% UCB) from time-matched baseline,[1]; 48 h after dose,1.2 msec and 1.2 (5.8) msec
same,LSM QTcI Change (95% UCB) from time-matched baseline,[1]; 48 h after dose,2.8 (8.1) msec
same,LSM heart rate change (95% UCB) from time-matched baseline,[1]; 48 h after dose,5.4 (8.3) bpm
same,Clinically relevant (>20 milliseconds) effect on the QT interval,"[1]; 40 mg, patients with advanced solid tumors","does not produce clinically relevant (ie, >20 milliseconds) effects on the QT interval"
same,Patients with PR >200 msec,[1]; [3],1 (3.1) n (%)
same,Patients with QRS >110 msec,[1]; [3],0 (0) n (%)
same,Patients with QTcF >450 msec,[1]; [3],2 (6.3) n (%)
same,Patients with QTcF >480 msec,[1]; [3],0 (0) n (%)
same,Patients with QTcF >500 msec,[1]; [3],0 (0) n (%)
same,Patients with QTcI >450 msec,[1]; [3],6 (18.8) n (%)
same,Patients with QTcI >480 msec,[1]; [3],1 (3.1) n (%)
same,Patients with QTcI >500 msec,[1]; [3],0 (0) n (%)
same,Patients with ΔPR >25% at any time point,[1]; [3],1 (3.1) n (%)
same,Patients with ΔQRS >25% at any time point,[1]; [3],0 (0) n (%)
same,Patients with ΔQTcF >30 msec at any time point,[1]; [3],2 (6.3) n (%)
same,Patients with ΔQTcF >60 msec at any time point,[1]; [3],0 (0) n (%)
same,Patients with ΔQTcI >30 msec at any time point,[1]; [3],5 (15.6) n (%)
same,Patients with ΔQTcI >60 msec at any time point,[1]; [3],1 (3.1) n (%)
same,Patients with ΔQTcI between 30 and 60 milliseconds,"[1]; after 40 mg dose, of the 6 patients with prolonged QTcI, 32 evaluable",4 patients
same,IC50,[2],175 µM
